For series [1], the system named is Myzus persicae organophosphate/carbamate resistant strain. The experiment in a line: Myzus spray test. The note with it: application rate 100 ppm; after 6 days; sprayed aubergine plants; 100% = all insects killed.
The nature of series [2]: Determination of the log P values (formic acid method). As for the experimental part: 1) Description of Method for Determination of the log P Values (Formic Aid Method)
Eluents for determination in the acidic range (pH 3.4):
Eluent A: acetonitrile+1 ml of formic acid/liter. Eluent B: water+0.9 ml of formic acid/liter.
The lambda max values were determined in the maxima of the chromatographic signals using the UV spectra from 200 nm to 400 nm.

For series [3], the system named is Meloidogyne incognita. Description: Meloidogyne incognita test. The note with it: application rate 20 ppm; lettuce in sand with egg/larvae suspension. Type of series: in vivo. As for the experimental part:
Meloidogyne Incognita Test
Solvent: 80.0 parts by weight of acetone
Vessels are filled with sand, active ingredient solution, Meloidogyne incognita egg/larvae suspension and lettuce seeds. The lettuce seeds germinate and the plants develop. Galls develop on the roots.
After the desired time, the nematicidal action is determined by the gall formation in %. 100% means that no galls were found; 0% means that the number of galls on the treated plants corresponds to the untreated control.

Series [4] relates to Myzus persicae. Description: Myzus test (spray treatment). Type of series: in vivo. Particulars: foliar, application rate 500 g/ha, sprayed Chinese cabbage leaf discs, all stages of green peach aphid, read-out: efficacy in % (aphids killed). Here is the method: Solvent 78 parts by weight of acetone • • 1.5 parts by weight of dimethylformamide
Emulsifier: 0.5 part by weight of alkylaryl polyglycol ether
To prepare an appropriate active ingredient preparation, 1 part by weight of active ingredient is mixed with the stated amounts of solvent and emulsifier, and the concentrate is diluted with emulsifier-containing water to the desired concentration.

The mark [5] stands for this setting: reverse-phase C18 HPLC column, pH 3.4, logP (HCOOH), final compounds table, HPLC reverse-phase C18, acidic range pH 3.4, 55° C.

Compound `COC(=N)c1cccc(-c2cnc(-c3cccnc3)s2)n1` [Compound 49] showed an efficacy in % in series [1] of 100%.

The chromatographic logP is a lipophilicity value derived from retention on a column. For the compound `COC(=N)c1cccc(-c2cnc(-c3cncc(F)c3)s2)n1` [Compound 50, Methyl 6-[2-(5-fluoropyridin-3-yl)-1,3-thiazol-5-yl]pyridine-2-carboximidoate], the chromatographic logP in series [2] (reverse-phase C18 HPLC column, pH 3.4, log P (HCOOH), preparation examples, HPLC-MS) is 0.9. The same compound yielded an efficacy in % in series [1] of 100%.

Consider `CC(C)(C)S(=O)(=O)NC(=O)c1cccc(-c2cnc(-c3cncc(F)c3)s2)n1` [Compound 56], for which the chromatographic logP in series [2] (setting [5]) came out at 2.77. For the same compound, the “efficacy in % (nematicidal action by gall formation)” value in series [3] turned out to be 100%. Also, the pest or weed control at 500 g/ha in series [4] amounted to 100%.

`Cc1nc(-c2cncc(F)c2)sc1-c1cc(C(=O)NS(C)(=O)=O)nn1C` [Compound 64] gave a chromatographic logP in series [2] (pH 3.4, logP (HCOOH)) of 1.84. In addition, the pest or weed control at 500 g/ha in series [4] was 100%.

Compound `CS(=O)(=O)N(CC#N)C(=O)c1cccc(-c2cnc(-c3cncc(F)c3)s2)n1` [Compound 65] came in with a chromatographic logP in series [2] (setting [5]) of 2.28. Further, in series [4], the pest or weed control at 500 g/ha stood at 90%.

As to `CN(C)S(=O)(=O)NC(=O)c1cccc(-c2cnc(-c3cccnc3)s2)n1` [Compound 66], the chromatographic logP in series [2] (pH 3.4, logP (HCOOH)) was found to be 2.01. The pest or weed control at 500 g/ha in series [4] is 100%.

For the compound `CC(=O)NS(=O)(=O)c1cccc(-c2cnc(-c3cncc(F)c3)s2)n1` [Compound 67], in series [2] (setting [5]), the chromatographic logP amounted to 1.72. The pest or weed control at 500 g/ha in series [4] was 100%.

`C#CCN(C(=O)c1cccc(-c2cnc(-c3cncc(F)c3)s2)n1)S(C)(=O)=O` [Compound 68]: the chromatographic logP in series [2] (pH 3.4, logP (HCOOH)) stood at 2.56. For the same compound, the pest or weed control at 500 g/ha in series [4] is 100%.

In the case of `CC(=O)NS(=O)(=O)c1cccc(-c2cnc(-c3cccnc3)s2)n1` [Compound 69, N-({6-[2-(Pyridin-3-yl)-1,3-thiazol-5-yl]pyridin-2-yl}sulphonyl)acetamide], the chromatographic logP in series [2] (pH 3.4, log P (HCOOH)) is 1.3; in series [2] (pH 3.4, logP (HCOOH)), 1.3. For the same compound, the pest or weed control at 500 g/ha in series [4] amounted to 100%.

`CCS(=O)(=O)NC(=O)c1cccc(-c2nnc(-c3cncc(F)c3)s2)n1` [Compound 70] gave a chromatographic logP in series [2] (setting [5]) of 2.07. For the same compound, the “efficacy in % (nematicidal action by gall formation)” value in series [3] turned out to be 100%. Besides, the pest or weed control at 500 g/ha in series [4] was determined as 100%.

In series [2] (pH 3.4, logP (HCOOH)), `O=C(NS(=O)(=O)C1CC1)c1cccc(-c2nnc(-c3cncc(F)c3)s2)n1` [Compound 71] had a chromatographic logP of 2.14. Besides, the pest or weed control at 500 g/ha in series [4] came out at 100%.

In series [2] (pH 3.4, logP (HCOOH)), `CC(C)S(=O)(=O)NC(=O)c1cccc(-c2nnc(-c3cncc(F)c3)s2)n1` [Compound 72] came in with a chromatographic logP of 2.31. The pest or weed control at 500 g/ha in series [4] turned out to be 100%.

`O=C(NS(=O)(=O)CC(F)(F)F)c1cccc(-c2nnc(-c3cncc(F)c3)s2)n1` [Compound 73] registered a chromatographic logP in series [2] (setting [5]) of 2.42. In series [4], the pest or weed control at 500 g/ha came out at 100%.

In series [2] (pH 3.4, logP (HCOOH)), `COCCS(=O)(=O)NC(=O)c1cccc(-c2nnc(-c3cncc(F)c3)s2)n1` [Compound 74] returned a chromatographic logP of 1.97. Further, the pest or weed control at 500 g/ha in series [4] came out at 90%.

As to `O=C(NS(=O)(=O)c1cccs1)c1cccc(-c2nnc(-c3cncc(F)c3)s2)n1` [Compound 75], the chromatographic logP in series [2] (setting [5]) is 2.38. Further, the “efficacy in % (nematicidal action by gall formation)” value in series [3] is recorded as 100%. In series [4], the pest or weed control at 500 g/ha amounted to 100%.

Consider `CC(=O)Nc1nnc(S(=O)(=O)NC(=O)c2cccc(-c3nnc(-c4cncc(F)c4)s3)n2)s1` [Compound 76], for which, in series [2] (setting [5]), the chromatographic logP turned out to be 1.43. Besides, the pest or weed control at 500 g/ha in series [4] came out at 100%.

In series [2] (setting [5]), `CC(C)(C)S(=O)(=O)NC(=O)c1cccc(-c2nnc(-c3cncc(F)c3)s2)n1` [Compound 77] had a chromatographic logP of 2.38. In series [4], the pest or weed control at 500 g/ha came to 100%.

`O=C(NS(=O)(=O)c1ccc(Cl)s1)c1cccc(-c2nnc(-c3cncc(F)c3)s2)n1` [Compound 78]: in series [2] (setting [5]), the chromatographic logP amounted to 3.08. In addition, the “efficacy in % (nematicidal action by gall formation)” value in series [3] is reported as 100%. In series [4], the pest or weed control at 500 g/ha was 100%.

Source of the values: US9044015B2, “Heterocyclic compounds as pesticides” (Bayer CropScience AG, priority 2010, dated 2015).
